Source: patent US20260015350A1, “AZAQUINAZOLINE PAN-KRAS INHIBITORS” (Mirati Therapeutics, Inc., priority 2022, published 2026)

Columns and labels:
KRas^Q61H = biological target: T1, KRas^Q61H (Homo sapiens, UniProt P01116, Q61H); assay: KRas binding assay (TR-FRET tracer displacement), KRas Q61H; details: for inhibition at 0.01 µM: single point, 10 nM compound, TR-FRET; for IC50: TR-FRET tracer displacement, KRas Q61H
T1 construct: Biotinylated KRas (corresponding to amino acids 1-169, produced at Accelegan Inc.); biotin (biotinylated); purchased Accelegan Inc
T1 sequence (P01116 1-169 isoform P01116-2 Q61H): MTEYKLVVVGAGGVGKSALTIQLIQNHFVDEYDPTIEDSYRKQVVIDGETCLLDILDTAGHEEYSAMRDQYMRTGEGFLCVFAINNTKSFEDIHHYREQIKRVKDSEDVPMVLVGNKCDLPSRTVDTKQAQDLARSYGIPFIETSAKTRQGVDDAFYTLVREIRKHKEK

[1] = tested on: KRas-mediated phosphorylation of ERK in AsPC-1 cells; assay: Inhibition of KRas-mediated phosphorylation of ERK (Cisbio HTRF pERK), AsPC-1 cells; type: cell-based; details: Homo sapiens; for IC50: ASPC1, AsPC-1 cells, HTRF pERK; for inhibition at 0.1 µM: ASPC1, 3 h, single point, 100 nM compound, 3 hrs, AsPC-1 cells
Outline: (§1)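 A cell-based HTRF pERK assay: ten-point, threefold titrations beginning at 10 uM were applied for 3 hrs, with 0.2 uM Trametinib wells as the minimum control. Cells were lysed cold, and lysate was incubated with the antibody pair for 2 hrs before reading.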

KRas^G12R = biological target: T2, KRas^G12R (Homo sapiens, UniProt P01116, G12R); assay: KRas binding assay (TR-FRET tracer displacement), KRas G12R
T2 construct: Biotinylated KRas (corresponding to amino acids 1-169, produced at Accelegan Inc.); biotin (biotinylated); purchased Accelegan Inc
T2 sequence (P01116 1-169 isoform P01116-2 G12R): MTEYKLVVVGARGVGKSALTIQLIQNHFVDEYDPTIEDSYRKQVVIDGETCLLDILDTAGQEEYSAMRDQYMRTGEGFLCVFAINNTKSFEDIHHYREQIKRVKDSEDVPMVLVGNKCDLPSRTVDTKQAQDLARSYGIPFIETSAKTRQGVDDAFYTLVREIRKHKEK

KRas^G13D = biological target: T3, KRas^G13D (Homo sapiens, UniProt P01116, G13D); assay: KRas binding assay (TR-FRET tracer displacement), KRas G13D; details: for inhibition at 0.01 µM: single point, 10 nM compound, TR-FRET; for IC50: TR-FRET tracer displacement, KRas G13D
T3 construct: Biotinylated KRas (corresponding to amino acids 1-169, produced at Accelegan Inc.); biotin (biotinylated); purchased Accelegan Inc
T3 sequence (P01116 1-169 isoform P01116-2 G13D): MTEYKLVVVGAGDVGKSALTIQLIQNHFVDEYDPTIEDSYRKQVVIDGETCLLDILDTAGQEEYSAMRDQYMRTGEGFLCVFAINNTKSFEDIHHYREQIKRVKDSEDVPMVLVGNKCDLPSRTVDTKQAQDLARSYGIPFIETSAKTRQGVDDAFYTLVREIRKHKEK

KRas^G12C = biological target: T4, KRas^G12C (Homo sapiens, UniProt P01116, G12C); assay: KRas binding assay (TR-FRET tracer displacement), KRas G12C; details: for inhibition at 0.01 µM: single point, 10 nM compound, TR-FRET; for IC50: TR-FRET tracer displacement, KRas G12C
T4 construct: Biotinylated KRas (corresponding to amino acids 1-169, produced at Accelegan Inc.); biotin (biotinylated); purchased Accelegan Inc
T4 sequence (P01116 1-169 isoform P01116-2 G12C): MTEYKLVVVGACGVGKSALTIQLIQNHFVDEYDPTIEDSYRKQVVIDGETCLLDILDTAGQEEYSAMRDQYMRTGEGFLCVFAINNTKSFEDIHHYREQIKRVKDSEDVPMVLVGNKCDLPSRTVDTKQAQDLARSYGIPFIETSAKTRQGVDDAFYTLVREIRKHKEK

[2] = tested on: KRas-mediated phosphorylation of ERK in A549 cells; assay: Inhibition of KRas-mediated phosphorylation of ERK (Cisbio HTRF pERK), A549 cells; type: cell-based; details: Homo sapiens; for inhibition at 0.1 µM: A549, 3 h, single point, 100 nM compound, 3 hrs
Outline: (§2)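 Compound treatment lasts 3 hrs on 6,000 seeded cells, testing 10 doses from a 10 uM top concentration in 3-fold decrements at 0.8% final DMSO. Trametinib at 0.2 uM defines the Min signal. Detection is HTRF on cold-lysed cell extracts.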

KRas^WT = biological target: T5, KRas^WT (Homo sapiens, UniProt P01116); assay: KRas binding assay (TR-FRET tracer displacement), KRas WT; details: for inhibition at 0.01 µM: single point, 10 nM compound, TR-FRET; for IC50: TR-FRET tracer displacement, KRas WT
T5 construct: Biotinylated KRas (corresponding to amino acids 1-169, produced at Accelegan Inc.); biotin (biotinylated); purchased Accelegan Inc
T5 sequence (P01116 1-169 isoform P01116-2): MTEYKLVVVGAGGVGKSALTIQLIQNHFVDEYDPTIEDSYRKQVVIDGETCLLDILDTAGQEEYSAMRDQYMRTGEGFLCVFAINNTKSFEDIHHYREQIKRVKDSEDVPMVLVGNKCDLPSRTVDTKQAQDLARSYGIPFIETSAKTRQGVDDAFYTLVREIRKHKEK

KRas^G12S = biological target: T6, KRas^G12S (Homo sapiens, UniProt P01116, G12S); assay: KRas binding assay (TR-FRET tracer displacement), KRas G12S; details: for inhibition at 0.01 µM: single point, 10 nM compound, TR-FRET; for IC50: TR-FRET tracer displacement, KRas G12S
T6 construct: Biotinylated KRas (corresponding to amino acids 1-169, produced at Accelegan Inc.); biotin (biotinylated); purchased Accelegan Inc
T6 sequence (P01116 1-169 isoform P01116-2 G12S): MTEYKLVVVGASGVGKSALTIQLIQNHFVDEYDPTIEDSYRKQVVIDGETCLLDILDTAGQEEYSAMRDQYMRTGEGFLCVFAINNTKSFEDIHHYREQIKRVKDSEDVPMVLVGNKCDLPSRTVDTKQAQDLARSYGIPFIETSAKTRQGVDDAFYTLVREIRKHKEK

KRas^G12V = biological target: T7, KRas^G12V (Homo sapiens, UniProt P01116, G12V); assay: KRas binding assay (TR-FRET tracer displacement), KRas G12V
T7 construct: Biotinylated KRas (corresponding to amino acids 1-169, produced at Accelegan Inc.); biotin (biotinylated); purchased Accelegan Inc
T7 sequence (P01116 1-169 isoform P01116-2 G12V): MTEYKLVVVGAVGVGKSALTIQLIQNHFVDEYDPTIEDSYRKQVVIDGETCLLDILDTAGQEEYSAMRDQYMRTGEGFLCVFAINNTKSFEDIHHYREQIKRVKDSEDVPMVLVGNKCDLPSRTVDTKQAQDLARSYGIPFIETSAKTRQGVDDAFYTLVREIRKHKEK

[3] = tested on: KRas-mediated phosphorylation of ERK in H727 cells; assay: Inhibition of KRas-mediated phosphorylation of ERK (Cisbio HTRF pERK), H727 cells; type: cell-based; details: Homo sapiens; for IC50: NCI-H727, H727 cells, HTRF pERK; for inhibition at 0.1 µM: NCI-H727, 3 h, single point, 100 nM compound, 3 hrs, H727 cells
Outline: as §1

[4] = tested on: KRas-mediated phosphorylation of ERK in H358 cells; assay: Inhibition of KRas-mediated phosphorylation of ERK (Cisbio HTRF pERK), H358 cells; type: cell-based; details: Homo sapiens; for inhibition at 0.1 µM: NCI-H358, 3 h, single point, 100 nM compound, 3 hrs
Outline: as §1

[5] = tested on: KRas-mediated phosphorylation of ERK in H460 cells; assay: Inhibition of KRas-mediated phosphorylation of ERK (Cisbio HTRF pERK), H460 cells; type: cell-based; details: Homo sapiens; for inhibition at 0.1 µM: NCI-H460, 3 h, single point, 100 nM compound, 3 hrs
Outline: as §1

KRas^G12A = biological target: T8, KRas^G12A (Homo sapiens, UniProt P01116, G12A); assay: KRas binding assay (TR-FRET tracer displacement), KRas G12A; details: for inhibition at 0.01 µM: single point, 10 nM compound, TR-FRET; for IC50: TR-FRET tracer displacement, KRas G12A
T8 construct: Biotinylated KRas (corresponding to amino acids 1-169, produced at Accelegan Inc.); biotin (biotinylated); purchased Accelegan Inc
T8 sequence (P01116 1-169 isoform P01116-2 G12A): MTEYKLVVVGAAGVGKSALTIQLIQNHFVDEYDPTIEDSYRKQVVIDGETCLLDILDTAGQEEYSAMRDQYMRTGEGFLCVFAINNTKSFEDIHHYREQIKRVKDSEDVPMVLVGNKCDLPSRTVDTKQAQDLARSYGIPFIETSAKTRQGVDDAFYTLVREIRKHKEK

KRas^G12D = biological target: T9, KRas^G12D (Homo sapiens, UniProt P01116, G12D); assay: KRas binding assay (TR-FRET tracer displacement), KRas G12D
T9 construct: Biotinylated KRas (corresponding to amino acids 1-169, produced at Accelegan Inc.); biotin (biotinylated); purchased Accelegan Inc
T9 sequence (P01116 1-169 isoform P01116-2 G12D): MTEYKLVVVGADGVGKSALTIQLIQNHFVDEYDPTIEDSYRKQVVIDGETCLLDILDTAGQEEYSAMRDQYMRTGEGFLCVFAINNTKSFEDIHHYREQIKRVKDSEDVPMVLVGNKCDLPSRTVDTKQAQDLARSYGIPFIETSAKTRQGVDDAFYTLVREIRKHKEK

[6] = tested on: KRas-mediated phosphorylation of ERK in HCT116 cells; assay: Inhibition of KRas-mediated phosphorylation of ERK (Cisbio HTRF pERK), HCT116 cells; type: cell-based; details: Homo sapiens; for inhibition at 0.1 µM: HCT-116, 3 h, single point, 100 nM compound, 3 hrs
Outline: as §2

Compound | IC50 [1] | IC50 (KRas^G12R) | IC50 (KRas^G12V) | IC50 [3] | IC50 (KRas^G12D) | IC50 (KRas^Q61H) | IC50 (KRas^G13D) | IC50 (KRas^G12C) | IC50 (KRas^WT) | IC50 (KRas^G12S) | IC50 (KRas^G12A) | inhibition at 0.1 µM [2] | inhibition at 0.1 µM [4] | inhibition at 0.1 µM [5] | inhibition at 0.1 µM [6] | inhibition at 0.1 µM [1] | inhibition at 0.1 µM [3] | also measured
CCc1c(F)ccc2cc(O)cc(-c3ncc4c(N5CCC[C@]6(CCO6)C5)nc(OCC5(CN(C)C)CC5)nc4c3F)c12 [Example 699, (S)-4-(2-((1-((dimethylamino)methyl)cyclopropyl)methoxy)-8-fluoro-4-(1-oxa-6-azaspiro[3.5]nonan-6-yl)pyrido[4,3-d]pyrimidin-7-yl)-5-ethyl-6-fluoronaphthalen-2-ol] | 2 nM |  |  | 6 nM |  |  |  |  |  |  |  | 80% | 101% | 95% | 82% |  |  | inhibition at 0.01 µM (KRas^Q61H): 96%; inhibition at 0.01 µM (KRas^G13D): 96%; inhibition at 0.01 µM (KRas^G12C): 96%; IC50 ([2]; HTRF pERK): 2 nM; inhibition at 0.01 µM (KRas^WT): 91%; inhibition at 0.01 µM (KRas^G12S): 93%; IC50 ([4]; NCI-H358, HTRF pERK): 3 nM; IC50 ([5]; NCI-H460, HTRF pERK): 5 nM; inhibition at 0.01 µM (KRas^G12A): 87%; IC50 ([6]; HCT-116, HTRF pERK): 14 nM
Cc1cc2[nH]c(=O)[nH]c2c(-c2ncc3c(N4CCC[C@@](C)(O)C4)nc(OCC45CCCN4CCC5)nc3c2F)c1C [Example 733, 4-(8-fluoro-4-((R)-3-hydroxy-3-methylpiperidin-1-yl)-2-((tetrahydro-1H-pyrrolizin-7a(5H)-yl)methoxy)pyrido[4,3-d]pyrimidin-7-yl)-5,6-dimethyl-1,3-dihydro-2H-benzo[d]imidazol-2-one] |  | 2670 nM | 1050 nM |  | 933 nM | 2280 nM | 1410 nM | 1520 nM | 1370 nM | 1400 nM | 1520 nM | 7% | -2% |  |  | -27% | -10% | 
Nc1nc2c(-c3ncc4c(N5CCCC6(C5)NC(=O)NC6=O)nc(OCC56CCCN5CCC6)nc4c3F)ccc(F)c2s1 (stereo not drawn) [Example 736, 7-(7-(2-amino-7-fluorobenzo[d]thiazol-4-yl)-8-fluoro-2-((tetrahydro-1H-pyrrolizin-7a(5H)-yl)methoxy)pyrido[4,3-d]pyrimidin-4-yl)-1,3,7-triazaspiro[4.5]decane-2,4-dione] |  | 640 nM | 664 nM |  | 2330 nM | 26 nM | 93 nM | 111 nM | 139 nM | 75 nM | 173 nM | 2% | 5% |  |  | -3% | -4% | 
Oc1cc(-c2ncc3c(N4C[C@@H]5C[C@H](C4)[C@H](O)C5)nc(OC[C@@]45CCCN4C[C@H](F)C5)nc3c2F)c2ccccc2c1Br [Example 781, (1R,5R,6R)-3-(7-(4-bromo-3-hydroxynaphthalen-1-yl)-8-fluoro-2-(((2R,7aS)-2-fluorohexahydro-1H-pyrrolizin-7a-yl)methoxy)pyrido[4,3-d]pyrimidin-4-yl)-3-azabicyclo[3.2.1]octan-6-ol] | 8950 nM | 778 nM | 727 nM | > 10000 nM | 2450 nM | 891 nM | 551 nM | 635 nM | 754 nM | 414 nM | 716 nM | -24% | 10% |  |  |  |  | 
Cc1cc2c(c(-c3ncc4c(N5CCC[C@@](C)(O)C5)nc(OCC56CCCN5CCC6)nc4c3F)c1C)CC(=O)N2 [Example 784, 4-(8-fluoro-2-((hexahydro-1H-pyrrolizin-7a-yl)methoxy)-4-((R)-3-hydroxy-3-methylpiperidin-1-yl)pyrido[4,3-d]pyrimidin-7-yl)-5,6-dimethylindolin-2-one] |  | 4490 nM | 1920 nM |  | 1320 nM | 746 nM | 471 nM | 480 nM | 665 nM | 475 nM | 717 nM |  |  | 9% | 9% | 19% | 0% | 

More lines, main results first:

IC50 [1] | IC50 (KRas^G12R) | IC50 (KRas^G12V) | IC50 [3] | IC50 (KRas^G12D) | IC50 (KRas^Q61H) | IC50 (KRas^G13D) | IC50 (KRas^G12C) | IC50 (KRas^WT) | IC50 (KRas^G12S) | IC50 (KRas^G12A) | Compound | inhibition at 0.1 µM [2] | inhibition at 0.1 µM [4] | inhibition at 0.1 µM [5] | inhibition at 0.1 µM [6] | inhibition at 0.1 µM [1] | inhibition at 0.1 µM [3] | also measured
55 nM | 5 nM | 3 nM | 88 nM | 2 nM |  |  |  |  |  |  | CN(C)C(=O)OC[C@@H]1CC[C@@]2(COc3nc(N4CCC[C@@](C)(O)C4)c4cnc(-c5cc(O)cc6ccc(F)c(F)c56)c(F)c4n3)CCCN12 [Example 548, ((3S,7aR)-7a-(((7-(7,8-difluoro-3-hydroxynaphthalen-1-yl)-8-fluoro-4-((R)-3-hydroxy-3-methylpiperidin-1-yl)pyrido[4,3-d]pyrimidin-2-yl)oxy)methyl)hexahydro-1H-pyrrolizin-3-yl)methyl dimethylcarbamate] | 38% | 59% | 38% | 29% |  |  | inhibition at 0.01 µM (KRas^Q61H): 79%; inhibition at 0.01 µM (KRas^G13D): 86%; inhibition at 0.01 µM (KRas^G12C): 84%; inhibition at 0.01 µM (KRas^WT): 79%; inhibition at 0.01 µM (KRas^G12S): 79%; inhibition at 0.01 µM (KRas^G12A): 79%
5220 nM | 139 nM | 93 nM | 3830 nM | 372 nM | 185 nM | 172 nM | 165 nM | 167 nM | 91 nM | 136 nM | Oc1cc2ccccc2c(-c2ncc3c(N4C[C@@H]5C[C@H](C4)[C@H](O)C5)nc(OC[C@@]45CCCN4C[C@H](F)C5)nc3c2F)c1F [Example 751, (1R,5R,6R)-3-(8-fluoro-7-(2-fluoro-3-hydroxynaphthalen-1-yl)-2-(((2R,7aS)-2-fluorohexahydro-1H-pyrrolizin-7a-yl)methoxy)pyrido[4,3-d]pyrimidin-4-yl)-3-azabicyclo[3.2.1]octan-6-ol] | -10% | -17% |  |  | -2% | -50% | 
9840 nM | 101 nM | 42 nM | > 10000 nM | 12 nM | 203 nM | 238 nM | 46 nM | 141 nM | 43 nM | 82 nM | CN(C)C(=O)c1cc2n(n1)CCCN(c1nc(OCC34CCCN3CCC4)nc3c(F)c(-c4c5ccccc5cc5[nH]ncc45)ncc13)C2 [Example 757, 5-(7-(1H-benzo[f]indazol-4-yl)-8-fluoro-2-((hexahydro-1H-pyrrolizin-7a-yl)methoxy)pyrido[4,3-d]pyrimidin-4-yl)-N,N-dimethyl-5,6,7,8-tetrahydro-4H-pyrazolo[1,5-a][1,4]diazepine-2-carboxamide] | 2% | 10% |  |  |  |  | 
5910 nM | 132 nM | 83 nM | 2910 nM | 268 nM | 164 nM | 146 nM | 144 nM | 156 nM | 100 nM | 139 nM | Oc1cc2ccccc2c(-c2ncc3c(N4C[C@@H]5C[C@H](C4)[C@H](O)C5)nc(OC[C@@]45CCCN4C[C@H](F)C5)nc3c2F)c1Cl [Example 765, (1R,5R,6R)-3-(7-(2-chloro-3-hydroxynaphthalen-1-yl)-8-fluoro-2-(((2R,7aS)-2-fluorohexahydro-1H-pyrrolizin-7a-yl)methoxy)pyrido[4,3-d]pyrimidin-4-yl)-3-azabicyclo[3.2.1]octan-6-ol] | 28% | -5% |  |  | -6% | -13% | 
